System: CYP76AH4
Assay: in vitro hydroxylation assay of recombinant enzyme, GC-MS
Format: cell-based, Salvia rosmarinus
Conditions: C12-hydroxylation to ferruginol; enzyme preparation not described in main text

## CC(C)c1ccc2c(c1)CC[C@H]1C(C)(C)CCC[C@]21C [compound 3, abietatriene]
  Km: 25 ± 6 µM
